Each block holds one molecule with its values, some of them ahead of it.
Tests used:
[1] = molecular target: T1, Mitogen-activated protein kinase kinase kinase 5 (Homo sapiens) (UniProt Q99683); assay: Selectivity interaction (LanthaScreen Eu Kinase Binding Assay) EUB0001632a MAP3K5; settings: at 10 µM
T1 sequence (whole entry): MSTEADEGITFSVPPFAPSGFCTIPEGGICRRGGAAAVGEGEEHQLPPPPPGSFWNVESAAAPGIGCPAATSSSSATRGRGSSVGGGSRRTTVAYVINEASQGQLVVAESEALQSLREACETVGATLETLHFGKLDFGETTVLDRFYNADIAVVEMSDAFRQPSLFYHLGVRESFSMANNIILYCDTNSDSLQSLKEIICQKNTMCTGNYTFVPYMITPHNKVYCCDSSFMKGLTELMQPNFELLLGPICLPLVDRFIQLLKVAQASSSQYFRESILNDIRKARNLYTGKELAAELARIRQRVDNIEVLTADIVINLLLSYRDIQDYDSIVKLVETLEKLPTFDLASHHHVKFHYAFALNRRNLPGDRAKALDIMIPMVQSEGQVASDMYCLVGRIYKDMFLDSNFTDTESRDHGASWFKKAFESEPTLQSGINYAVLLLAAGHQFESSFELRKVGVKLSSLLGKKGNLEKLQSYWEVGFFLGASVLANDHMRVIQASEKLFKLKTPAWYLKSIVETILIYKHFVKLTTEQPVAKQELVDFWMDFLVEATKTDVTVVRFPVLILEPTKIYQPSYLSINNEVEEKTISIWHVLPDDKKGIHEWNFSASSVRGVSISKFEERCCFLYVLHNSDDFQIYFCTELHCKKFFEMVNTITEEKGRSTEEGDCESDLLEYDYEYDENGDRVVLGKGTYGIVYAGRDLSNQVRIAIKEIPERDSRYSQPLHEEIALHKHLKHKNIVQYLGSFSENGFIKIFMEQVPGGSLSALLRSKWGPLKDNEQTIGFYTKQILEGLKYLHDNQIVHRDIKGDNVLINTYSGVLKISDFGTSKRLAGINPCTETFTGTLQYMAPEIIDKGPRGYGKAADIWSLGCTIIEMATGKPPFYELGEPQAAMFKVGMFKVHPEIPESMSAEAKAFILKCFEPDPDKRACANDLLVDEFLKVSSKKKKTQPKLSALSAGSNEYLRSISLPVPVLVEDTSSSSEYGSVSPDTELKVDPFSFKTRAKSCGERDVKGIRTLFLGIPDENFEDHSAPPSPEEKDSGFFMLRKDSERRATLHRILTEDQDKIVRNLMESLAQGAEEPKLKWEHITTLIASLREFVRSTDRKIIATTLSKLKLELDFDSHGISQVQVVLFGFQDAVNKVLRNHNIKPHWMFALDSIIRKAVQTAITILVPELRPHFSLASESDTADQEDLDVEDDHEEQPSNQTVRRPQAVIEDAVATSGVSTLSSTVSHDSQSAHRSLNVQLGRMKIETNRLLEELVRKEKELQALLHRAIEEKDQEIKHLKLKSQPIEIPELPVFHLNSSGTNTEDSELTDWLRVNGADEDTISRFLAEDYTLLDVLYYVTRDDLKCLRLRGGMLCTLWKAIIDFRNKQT

[2] = molecular target: Mitogen-activated protein kinase kinase kinase kinase 4 (Homo sapiens, UniProt O95819); assay: Selectivity interaction (KinomeScan (DiscoverX)) EUB0000666a MAP4K4; settings: at 10 µM
[3] = molecular target: Serine/threonine-protein kinase PAK 2 (Homo sapiens) (UniProt Q13177); assay: Selectivity interaction (Kinase panel (Eurofins)) EUB0001564a PAK2; settings: at 1 µM
[4] = molecular target: T2, cGMP-dependent protein kinase 1 (Homo sapiens) (UniProt Q13976); assay: Selectivity interaction (SelectScreen profiling (Invitrogen)) EUB0000607a PRKG1; settings: at 2 µM
T2 sequence (whole entry): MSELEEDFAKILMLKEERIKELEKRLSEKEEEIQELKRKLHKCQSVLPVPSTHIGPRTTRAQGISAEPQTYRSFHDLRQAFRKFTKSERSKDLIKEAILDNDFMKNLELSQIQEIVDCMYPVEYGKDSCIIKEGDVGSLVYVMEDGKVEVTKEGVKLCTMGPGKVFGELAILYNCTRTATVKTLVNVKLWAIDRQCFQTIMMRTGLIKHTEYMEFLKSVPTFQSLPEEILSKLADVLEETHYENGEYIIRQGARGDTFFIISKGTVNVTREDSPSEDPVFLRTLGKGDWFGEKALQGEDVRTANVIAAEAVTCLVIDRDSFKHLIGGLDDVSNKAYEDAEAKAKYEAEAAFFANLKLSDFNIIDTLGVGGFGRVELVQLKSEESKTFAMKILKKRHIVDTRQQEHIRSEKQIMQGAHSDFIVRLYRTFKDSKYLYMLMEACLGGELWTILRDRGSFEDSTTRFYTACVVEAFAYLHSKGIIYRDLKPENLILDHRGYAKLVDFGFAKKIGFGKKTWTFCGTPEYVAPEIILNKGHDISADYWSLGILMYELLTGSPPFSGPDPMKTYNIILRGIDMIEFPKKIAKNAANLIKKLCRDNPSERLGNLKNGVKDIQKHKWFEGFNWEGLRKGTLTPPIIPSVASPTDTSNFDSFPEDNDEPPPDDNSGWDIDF

[5] = molecular target: Mast/stem cell growth factor receptor Kit (Homo sapiens, UniProt P10721); settings: at 10 µM
[6] = molecular target: Tyrosine-protein kinase JAK1 (Homo sapiens, UniProt P23458); assay: Selectivity interaction (KinomeScan (DiscoverX)) EUB0000695a JAK1; settings: at 100 nM
[7] = molecular target: Beta-2 adrenergic receptor (Homo sapiens, UniProt P07550); assay: Selectivity interaction (Panel of kinases, GPCRs, ion channels and transporters (enzymatic assay)) EUB0000223bCl ADRB2
[8] = molecular target: T3, N-lysine methyltransferase KMT5A (Homo sapiens) (UniProt Q9NQR1); settings: at 1 µM
T3 sequence (whole entry): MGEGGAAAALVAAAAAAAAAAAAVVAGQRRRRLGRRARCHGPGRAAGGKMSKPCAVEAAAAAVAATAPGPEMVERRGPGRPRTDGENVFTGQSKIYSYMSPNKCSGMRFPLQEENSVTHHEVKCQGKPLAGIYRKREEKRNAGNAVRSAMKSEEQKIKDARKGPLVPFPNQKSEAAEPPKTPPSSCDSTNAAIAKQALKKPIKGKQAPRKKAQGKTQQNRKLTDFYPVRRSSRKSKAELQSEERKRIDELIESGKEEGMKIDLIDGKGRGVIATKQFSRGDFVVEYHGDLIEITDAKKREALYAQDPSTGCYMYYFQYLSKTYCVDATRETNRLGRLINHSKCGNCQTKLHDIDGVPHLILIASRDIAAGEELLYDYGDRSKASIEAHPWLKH

[9] = molecular target: Eukaryotic translation initiation factor 2-alpha kinase 1 (Homo sapiens) (UniProt Q9BQI3); assay: Selectivity interaction (KinomeScan (DiscoverX)) EUB0000092b EIF2AK1; settings: at 10 µM
[10] = molecular target: T1, Mitogen-activated protein kinase kinase kinase 5 (Homo sapiens); assay: Selectivity interaction (KinomeScan (DiscoverX)) EUB0000618a MAP3K5; settings: at 10 µM

Sequence of Tyrosine-protein kinase JAK1 (P23458 whole entry): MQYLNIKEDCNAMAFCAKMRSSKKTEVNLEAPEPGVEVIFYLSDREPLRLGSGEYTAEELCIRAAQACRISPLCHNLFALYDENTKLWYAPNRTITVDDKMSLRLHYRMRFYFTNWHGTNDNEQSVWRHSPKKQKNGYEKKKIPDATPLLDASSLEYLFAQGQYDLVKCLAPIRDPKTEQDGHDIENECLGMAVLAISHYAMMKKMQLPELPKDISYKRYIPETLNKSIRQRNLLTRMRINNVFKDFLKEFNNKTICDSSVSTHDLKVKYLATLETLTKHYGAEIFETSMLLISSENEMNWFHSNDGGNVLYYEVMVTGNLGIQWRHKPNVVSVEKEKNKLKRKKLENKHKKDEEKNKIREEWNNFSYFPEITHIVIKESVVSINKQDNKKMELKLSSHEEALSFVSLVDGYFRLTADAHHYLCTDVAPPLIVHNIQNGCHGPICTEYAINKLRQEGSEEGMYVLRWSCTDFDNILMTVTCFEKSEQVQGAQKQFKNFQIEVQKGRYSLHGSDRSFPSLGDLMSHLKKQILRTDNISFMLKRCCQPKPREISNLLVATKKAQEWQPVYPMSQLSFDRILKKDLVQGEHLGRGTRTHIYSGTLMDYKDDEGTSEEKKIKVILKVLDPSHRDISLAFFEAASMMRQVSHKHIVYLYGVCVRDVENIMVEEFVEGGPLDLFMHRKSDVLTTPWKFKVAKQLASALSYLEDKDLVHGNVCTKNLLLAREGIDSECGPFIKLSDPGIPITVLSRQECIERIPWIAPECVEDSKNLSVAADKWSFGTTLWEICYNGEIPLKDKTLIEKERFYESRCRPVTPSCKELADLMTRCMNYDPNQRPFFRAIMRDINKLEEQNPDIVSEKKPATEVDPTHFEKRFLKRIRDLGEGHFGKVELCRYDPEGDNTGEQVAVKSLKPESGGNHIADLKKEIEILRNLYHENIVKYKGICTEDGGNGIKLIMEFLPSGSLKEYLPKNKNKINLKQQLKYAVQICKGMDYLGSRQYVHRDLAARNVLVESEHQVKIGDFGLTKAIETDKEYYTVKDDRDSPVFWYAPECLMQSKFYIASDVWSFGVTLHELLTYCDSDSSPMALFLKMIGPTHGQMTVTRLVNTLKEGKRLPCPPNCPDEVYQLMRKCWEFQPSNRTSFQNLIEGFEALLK
Sequence of Serine/threonine-protein kinase PAK 2 (Homo sapiens) (Q13177 whole entry): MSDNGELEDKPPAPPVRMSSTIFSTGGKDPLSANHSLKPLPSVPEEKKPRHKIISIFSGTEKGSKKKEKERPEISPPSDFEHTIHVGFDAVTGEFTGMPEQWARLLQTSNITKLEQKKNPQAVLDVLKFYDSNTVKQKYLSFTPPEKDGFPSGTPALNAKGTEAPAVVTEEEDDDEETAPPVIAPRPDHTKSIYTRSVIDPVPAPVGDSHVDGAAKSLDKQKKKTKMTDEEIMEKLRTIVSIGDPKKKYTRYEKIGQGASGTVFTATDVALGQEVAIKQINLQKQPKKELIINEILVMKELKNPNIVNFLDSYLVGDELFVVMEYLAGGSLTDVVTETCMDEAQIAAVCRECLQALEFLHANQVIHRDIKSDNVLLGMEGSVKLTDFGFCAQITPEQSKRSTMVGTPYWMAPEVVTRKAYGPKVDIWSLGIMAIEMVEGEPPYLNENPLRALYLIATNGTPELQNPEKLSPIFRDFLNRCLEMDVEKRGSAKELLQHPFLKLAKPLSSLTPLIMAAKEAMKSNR
Sequence of Mast/stem cell growth factor receptor Kit (P10721 whole entry): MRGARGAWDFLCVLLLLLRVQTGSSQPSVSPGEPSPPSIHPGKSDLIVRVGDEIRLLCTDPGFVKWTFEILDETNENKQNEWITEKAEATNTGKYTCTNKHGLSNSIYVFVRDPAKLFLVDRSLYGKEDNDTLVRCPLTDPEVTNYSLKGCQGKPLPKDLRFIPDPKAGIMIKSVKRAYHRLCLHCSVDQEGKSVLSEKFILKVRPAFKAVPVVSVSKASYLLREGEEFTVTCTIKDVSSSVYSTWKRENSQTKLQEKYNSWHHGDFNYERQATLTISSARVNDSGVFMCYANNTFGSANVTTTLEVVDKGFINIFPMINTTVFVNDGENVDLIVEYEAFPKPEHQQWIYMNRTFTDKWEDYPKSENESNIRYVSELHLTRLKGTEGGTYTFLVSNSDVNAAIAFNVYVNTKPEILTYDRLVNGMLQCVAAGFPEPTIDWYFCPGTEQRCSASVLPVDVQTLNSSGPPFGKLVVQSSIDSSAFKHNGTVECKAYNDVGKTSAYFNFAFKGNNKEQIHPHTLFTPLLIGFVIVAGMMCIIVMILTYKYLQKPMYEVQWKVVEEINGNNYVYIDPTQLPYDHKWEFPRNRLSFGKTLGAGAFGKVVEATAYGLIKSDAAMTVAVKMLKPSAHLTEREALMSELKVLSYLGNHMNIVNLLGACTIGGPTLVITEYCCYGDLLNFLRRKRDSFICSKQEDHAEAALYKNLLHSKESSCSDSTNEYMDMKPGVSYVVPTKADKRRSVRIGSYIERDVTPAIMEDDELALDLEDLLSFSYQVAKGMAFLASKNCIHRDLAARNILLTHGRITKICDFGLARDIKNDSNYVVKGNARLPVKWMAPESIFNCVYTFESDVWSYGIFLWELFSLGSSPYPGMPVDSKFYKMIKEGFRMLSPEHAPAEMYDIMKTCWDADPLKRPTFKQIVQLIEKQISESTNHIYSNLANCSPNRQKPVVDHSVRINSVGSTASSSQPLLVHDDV
Sequence of Beta-2 adrenergic receptor (P07550 whole entry, looked up): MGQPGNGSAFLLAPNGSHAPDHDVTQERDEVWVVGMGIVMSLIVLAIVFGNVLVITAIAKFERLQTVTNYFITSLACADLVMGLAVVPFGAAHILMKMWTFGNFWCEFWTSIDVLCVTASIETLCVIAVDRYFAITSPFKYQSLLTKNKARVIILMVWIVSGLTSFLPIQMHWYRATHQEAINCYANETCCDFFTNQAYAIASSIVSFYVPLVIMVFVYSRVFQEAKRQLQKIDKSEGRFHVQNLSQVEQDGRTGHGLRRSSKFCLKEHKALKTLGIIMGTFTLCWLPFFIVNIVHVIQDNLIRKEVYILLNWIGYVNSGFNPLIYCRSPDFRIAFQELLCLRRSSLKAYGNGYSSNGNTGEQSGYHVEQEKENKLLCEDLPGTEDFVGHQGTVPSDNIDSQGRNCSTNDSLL
Sequence of Mitogen-activated protein kinase kinase kinase kinase 4 (O95819 2-1239 limits assumed): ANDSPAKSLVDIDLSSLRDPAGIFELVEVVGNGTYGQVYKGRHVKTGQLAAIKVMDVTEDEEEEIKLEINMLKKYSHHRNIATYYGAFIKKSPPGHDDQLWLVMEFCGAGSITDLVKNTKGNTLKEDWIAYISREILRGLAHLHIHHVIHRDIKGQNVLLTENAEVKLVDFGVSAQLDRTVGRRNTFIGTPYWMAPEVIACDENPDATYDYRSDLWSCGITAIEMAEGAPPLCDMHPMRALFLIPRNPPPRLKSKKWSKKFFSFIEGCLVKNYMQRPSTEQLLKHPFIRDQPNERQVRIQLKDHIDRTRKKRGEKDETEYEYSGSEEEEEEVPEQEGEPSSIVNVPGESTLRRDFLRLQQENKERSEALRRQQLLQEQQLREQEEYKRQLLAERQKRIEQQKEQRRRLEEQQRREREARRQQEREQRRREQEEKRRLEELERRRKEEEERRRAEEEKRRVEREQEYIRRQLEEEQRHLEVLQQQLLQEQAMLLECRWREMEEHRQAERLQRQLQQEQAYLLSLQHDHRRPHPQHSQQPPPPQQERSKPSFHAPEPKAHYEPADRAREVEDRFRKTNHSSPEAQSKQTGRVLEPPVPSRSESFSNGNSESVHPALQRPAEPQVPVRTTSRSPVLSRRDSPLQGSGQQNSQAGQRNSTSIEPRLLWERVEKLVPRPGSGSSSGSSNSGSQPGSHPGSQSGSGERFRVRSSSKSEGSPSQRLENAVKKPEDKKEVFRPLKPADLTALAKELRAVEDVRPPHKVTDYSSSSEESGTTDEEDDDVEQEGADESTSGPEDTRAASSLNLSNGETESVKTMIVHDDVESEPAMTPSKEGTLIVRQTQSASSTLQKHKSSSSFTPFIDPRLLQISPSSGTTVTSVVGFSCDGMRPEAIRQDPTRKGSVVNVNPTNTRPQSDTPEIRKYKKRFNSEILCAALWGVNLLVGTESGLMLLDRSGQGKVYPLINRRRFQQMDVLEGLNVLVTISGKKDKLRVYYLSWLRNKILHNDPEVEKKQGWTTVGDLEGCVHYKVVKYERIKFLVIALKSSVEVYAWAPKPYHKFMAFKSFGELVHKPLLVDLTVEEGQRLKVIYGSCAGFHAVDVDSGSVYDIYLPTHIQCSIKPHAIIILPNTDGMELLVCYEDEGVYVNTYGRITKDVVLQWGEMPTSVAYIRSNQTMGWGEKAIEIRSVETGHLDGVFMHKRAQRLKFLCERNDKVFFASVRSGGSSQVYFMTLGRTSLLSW
Sequence of Eukaryotic translation initiation factor 2-alpha kinase 1 (Homo sapiens) (Q9BQI3 whole entry): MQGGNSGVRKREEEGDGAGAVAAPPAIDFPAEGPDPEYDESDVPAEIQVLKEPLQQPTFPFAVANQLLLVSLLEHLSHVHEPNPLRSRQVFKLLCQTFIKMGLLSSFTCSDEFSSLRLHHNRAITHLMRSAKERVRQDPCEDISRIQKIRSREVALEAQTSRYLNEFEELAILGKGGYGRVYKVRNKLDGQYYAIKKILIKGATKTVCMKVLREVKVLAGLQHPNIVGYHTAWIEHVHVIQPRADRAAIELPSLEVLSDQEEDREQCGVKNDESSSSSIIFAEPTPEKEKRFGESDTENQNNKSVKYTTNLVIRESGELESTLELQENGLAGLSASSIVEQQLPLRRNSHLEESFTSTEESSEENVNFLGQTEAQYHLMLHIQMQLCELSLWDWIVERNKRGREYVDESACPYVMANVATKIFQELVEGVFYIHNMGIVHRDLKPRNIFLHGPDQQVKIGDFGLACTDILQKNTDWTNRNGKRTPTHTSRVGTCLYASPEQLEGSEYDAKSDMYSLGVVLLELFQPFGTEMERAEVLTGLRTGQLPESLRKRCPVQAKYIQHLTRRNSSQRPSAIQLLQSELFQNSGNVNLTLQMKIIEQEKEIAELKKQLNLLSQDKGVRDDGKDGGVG

% of inhibition [1]: -14.2%
SMILES: Cn1cc(-n2cnc3c(NCc4nc5cc(Cl)c(Cl)cc5[nH]4)nc(N4CCOCC4)nc32)cn1

SMILES: O=C(NOC[C@H](O)CO)c1ccc(F)c(F)c1Nc1ccc(I)cc1F
% of control [2]: 69%

% of inhibition [3]: 24.9%
SMILES: CC[C@@H](Nc1c(C#N)c(-c2ccc(-c3cccc(C)c3F)cc2)nc2cnccc12)C(=O)O [BAY-091]

SMILES: CNC(=O)Nc1ccc(-c2nc(N3CC4CCC(C3)O4)c3cnn(C4CCC5(CC4)OCCO5)c3n2)cc1
% of inhibition [4]: 1%

% of control [5]: 100%
SMILES: CCN(CC)CCCCNc1ncc2cc(-c3cc(OC)cc(OC)c3)c(NC(=O)NC(C)(C)C)nc2n1

SMILES: Cc1cc(F)c(C(=O)Nc2cccc(-c3nncn3C(C)C)n2)cc1-n1cnc(C2CC2)c1
% of control [6]: 60%

SMILES: COc1cc(C(=O)N2CC[C@@H](O)[C@@H](N)C2)cc2nc(-c3cc4ccccc4n3CC3CC3)n(C)c12
pXC50 [7]: < 4.5 M

% activity [8]: > 90%
SMILES: CNCCN1CCC(c2cc(CN(C)C(=O)c3cccc(Oc4ccccc4)c3)ccn2)CC1

SMILES: CCC(=O)N1CCN(c2ccc(-n3c(=O)ccc4cnc5ccc(-c6cnc7ccccc7c6)cc5c43)cc2C(F)(F)F)CC1
% of control [9]: 57%

SMILES: O[C@H]1CC[C@H](Nc2ncc3nc(Nc4c(F)cc(F)cc4F)n([C@H]4CCOC4)c3n2)CC1
% of control [10]: 100%
